Source: ChEMBL document CHEMBL5661955, “ASAP - In vitro cytotoxicity” (2024)
Values joined by “and” are separate entries in the source; they are usually repeats but may differ in a detail not shown here. Equal entries are not always repeated.

What was measured:
[1] = Functional assay to measure dose dependent changes in cell viability from drug treatment in Vero E6 miRFP670 cells (cotreated with P-gp inhibitor, CP100356) that are infected with Dengue virus type 2 New Guinea C. […] Cytotoxicity is reported via via analysis of DAPI count using high-content imager. The assay has been performed by KU Leuven.; type: toxicity, cell-based, Vero C1008; settings: chlorocebus sabaeus, p-gp concentration 500 nM
[2] = Functional CPE-based assay to measure dose dependent changes in cell viability from drug treatment in Vero E6 miRFP670 cells (cotreated with P-gp inhibitor, CP100356). Cells are treated with antiviral candidates that have been serially diluted. Cytotoxicity is reported via analysis of MTS assays in uninfected cells. The assay has been performed by KU Leuven.; type: toxicity, Vero C1008; settings: chlorocebus sabaeus, p-gp concentration 500 nM
[3] = Functional metabolic assay to measure dose dependent changes in cell viability from drug treatment in Vero E6/TMPRSS2 cells (cotreated with P-gp inhibitor, Elacridar). […] Cytotoxicity is reported via measuring absorbance and analysis of MTT/MTS assays in uninfected cells. The assay has been performed by Icahn School of Medicine at Mount Sinai.; type: toxicity, cell-based, VeroE6/TMPRSS2; settings: chlorocebus sabaeus, p-gp concentration 2 uM; for CC50: Vero E6/TMPRSS2 cells, with Elacridar (P-gp inhibitor, concentration not stated); for CC10: veroe6/tmprss2
[4] = with CP100356 (P-gp inhibitor, concentration not stated)
[5] = Vero E6 miRFP670 cells, with CP100356 (P-gp inhibitor, concentration not stated)

SMILES | CC50 [1, 4] [µM] | CC50 [2, 5] [µM] | CC50 [3] [µM] | CC10 [3] [µM] | CC50 ([2]; vero c1008) | CC50 ([1]; vero c1008)
N#C[C@H](Nc1ccc2c(c1)CNC2)c1cc(Cl)cc(C2CC2)c1 | > 50 | 46.5 | > 50 | > 50 | – | –
O=C(Nc1ccc2c(c1)CNC2)c1cc(Cl)cc2ccncc12 | > 50 | > 50 | > 50 | > 50 | – | –
O=C1Cc2c(cc(Br)cc2C(=O)Nc2ccc3c(c2)CNC3)N1 | 27.7 | > 50 | > 50 | – | – | –
O=C(NC[C@H]1CCCO1)[C@H](Nc1ccc2c(c1)CNC2)c1cc(Cl)cc(C2CC2)c1 | > 50 | 39.2 | > 50 | > 50 | – | –
N#Cc1cc(C(=O)Nc2ccc3c(c2)CNC3)cc(C(F)(F)F)c1 | 0.739 | > 50 | > 50 | > 50 | – | –
O=C(Nc1ccc2c(c1)CNC2)c1cc(C(F)(F)F)cc2[nH]ccc12 | > 50 | > 50 | > 50 | > 50 | – | –
CCc1cc(C(=O)Nc2cccc(-c3nnn[nH]3)c2)sc1-c1ccc(Cl)cc1 | > 50 | 38.6 | > 50 | > 50 | – | –
Cn1cc(CCc2nc3c(C(=O)Nc4ccc5c(c4)CNC5)cc(Cl)cc3[nH]2)cn1 | > 50 | > 50 | > 50 | 17.311 | – | –
O=C(NCc1ccc(F)cc1)[C@H](Nc1ccc2c(c1)CNC2)c1cc(Cl)cc2[nH]ncc12 | > 50 | > 50 | – | > 50 | – | –
O=C(Nc1ccc2c(c1)CNC2)c1cc(Br)cc2[nH]ncc12 | > 50 | > 50 | > 50 | > 50 | – | –
Cn1cc2cc(Cl)cc(C(=O)Nc3ccc4c(c3)CNC4)c2n1 | 3.58 | 2.75 | > 50 | > 50 | – | –
O=C(Nc1ccc2c(c1)CCNCC2)c1cc(Cl)cc2[nH]ncc12 | > 50 | > 50 | 44.2 | 7.014 | – | –
N[C@H]1Cc2ccc(NC(=O)c3cc(Cl)cc4[nH]ncc34)cc2C1 | > 50 | > 50 | > 50 | > 50 | – | –
CN(c1ccc2c(c1)CNC2)[C@H](C(=O)NCC(F)F)c1cc(Cl)cc(C2CC2)c1 | 14.3 | 9.32 | – | – | – | –
O=C(NCC(F)F)[C@H](Nc1ccc2c(c1)CNC2)c1cc(F)cc2[nH]ccc12 | 31.1 | > 50 | – | – | – | –
O=C1Cc2c(cccc2C(=O)Nc2ccc3c(c2)CCNCC3)N1 | > 50 | > 50 | – | – | – | –
O=C(Nc1ccc2c(c1)CNC2)c1cccc2c(C3CNC3)n[nH]c12 | > 50 | > 50 | – | – | – | –
CNC(=O)[C@H](Nc1ccc2c(c1)CNC2)c1cc(Cl)cc2[nH]c(-c3ccccc3)nc12 | > 50 | – | – | – | 9.01 µM and 21.4 µM | –
O=C(NCCC1CC1)[C@H](Nc1ccc2c(c1)CNC2)c1cc(Cl)cc(C2CC2)c1 | 16.7 | 11.8 | – | – | – | –
O=C(Nc1ccc2c(c1)CNC2)c1cc(F)cc(-c2c[nH]c(=O)c(F)c2)c1 | 25.4 | > 50 | – | – | – | –
C[C@H]1C(=O)Nc2ccc(C(=O)Nc3ccc4c(c3)CNC4)cc21 | > 50 | > 50 | – | – | – | –
NCc1ccc(-c2csc3cc(C(=O)Nc4ccc5c(c4)CNC5)ccc23)cc1 | 4.14 | 31.9 | – | – | – | –
O=C(NCC(F)F)[C@H](Nc1cc2c(cc1Br)CNC2)c1cc(Cl)cc(C2CC2)c1 | 6.39 | 5.82 | – | – | – | –
O=C(Nc1ccc2c(c1)CNC2)c1ccc2c(C3=CCNCC3)csc2c1 | 18.8 | 47.1 | – | – | – | –
O=C(Nc1ccc2c(c1)CNC2)c1cccc2[nH]c(C(F)(F)F)cc12 | > 50 | 47.3 | – | – | – | –
NCc1cccc(-c2csc3cc(C(=O)Nc4ccc5c(c4)CNC5)ccc23)c1 | 3.57 | 5.68 | – | – | – | –
O=C(Nc1ccc2c(c1)CNC2)c1cc(F)cc2[nH]c(-c3ccc(F)cc3)nc12 | 4.33 | 6.47 | – | – | – | –

SMILES | CC50 [1, 4] [µM] | CC50 [2, 5] [µM] | CC50 [3] [µM] | CC10 [3] [µM] | CC50 ([2]; vero c1008) | CC50 ([1]; vero c1008)
CC(C)(C)OC(=O)N1Cc2ccc(N[C@H](C(=O)O)c3cc(Cl)cc4[nH]ncc34)cc2C1 | 28.9 | > 50 | – | – | – | –
CCOCCNC(=O)[C@H](Nc1ccc2c(c1)CNC2)c1cc(Cl)cc2[nH]ncc12 | 9.94 | > 50 | – | – | – | –
O=C(Nc1cc2c(c(C3=CCS(=O)(=O)CC3)c1)CNC2)c1cc(F)cc2[nH]ncc12 | > 50 | > 50 | – | – | – | –
O=C(Nc1cc(Cl)cc(-c2cnn(Cc3ccc(C(=O)O)cc3)c2)c1)OCc1ccccc1 | 24 | 35.5 | – | – | – | –
C=Cc1cc2c(cc1NC(=O)c1cc(F)cc3[nH]ncc13)CNC2 | > 50 | > 50 | – | – | – | –
NCc1csc2cc(C(=O)Nc3ccc4c(c3)CNC4)ccc12 | 5.74 | > 50 | – | – | – | –
O=C(Nc1ccc2c(c1)CNC2)c1cc(Br)cc2[nH]c(=O)[nH]c12 | 4.79 | > 50 | – | – | – | –
O=C(Nc1cc2c(cc1Br)CNC2)c1cc(Cl)cc2[nH]ncc12 | 13.5 | 1.85 | – | – | – | –
O=C(Nc1ccc2c(c1)CNC2)c1cc(Cl)cc(N2CCCC2)c1 | 13.2 | 5.83 | – | – | – | –
O=C(NC1CCOCC1)[C@H](Nc1ccc2c(c1)CNC2)c1cc(Cl)cc2[nH]ncc12 | > 50 | > 50 | – | – | – | –
N#Cc1ccc(-c2nc3c(C(=O)Nc4ccc5c(c4)CNC5)cc(F)cc3[nH]2)cc1 | > 50 | > 50 | – | – | – | –
Cc1cnccc1-c1cc(NC(=O)c2cc(F)cc3[nH]ncc23)cc2c1CNC2 | > 50 | > 50 | – | – | – | –
Cc1cc(-c2cc(F)cc(C(=O)Nc3ccc4c(c3)CNC4)c2)[nH]n1 | > 50 | > 50 | – | – | – | –
O=C(Nc1cc2c(c(-c3c[nH]c(=O)c(F)c3)c1)CNC2)c1cc(F)cc2[nH]ncc12 | > 50 | > 50 | – | – | – | –
O=C(Nc1ccc2c(c1)CNC2)c1cc(Br)cc2c1nc1n2CCCC1 | 1.27 | 0.847 | – | – | – | –
Cn1cc2c(C(=O)Nc3ccc4c(c3)CNC4)cc(F)cc2n1 | > 50 | > 50 | – | – | – | –
O=C(Nc1ccc2c(c1)CNC2)c1cc(Cl)cc2[nH]c(-c3cc(C4CC4)[nH]n3)nc12 | 1.27 | 1.51 | – | – | – | –
CO[C@H]1C[C@H](n2ncc3c(C(=O)Nc4ccc5c(c4)CNC5)cc(Cl)cc32)C1 | 47.5 | 14 | – | – | – | –
N#Cc1cccc(-c2nc3c(C(=O)Nc4ccc5c(c4)CNC5)cc(Cl)cc3[nH]2)c1 | > 50 | 6.67 | – | – | – | –
O=C(Nc1ccc2c(c1)CNC2)c1cccc2c1[C@]1(CCNC1)C(=O)N2 | > 50 | > 50 | – | – | – | –
N#Cc1cc2c(cc1NC(=O)c1cc(F)cc3[nH]ncc13)CNC2 | > 50 | > 50 | – | – | – | –
O=C(Nc1ccc2c(c1)CNC2)c1cc(F)cc(-c2cnc(C3CC3)s2)c1 | 16.4 | 19.7 | – | – | – | –
COc1ccccc1-c1nc2c(C(=O)Nc3ccc4c(c3)CNC4)cc(F)cc2[nH]1 | 15.6 | > 50 | – | – | – | –
O=C(Nc1ccc2c(c1)CNC2)c1cc(F)cc2[nH]c(-c3cnc(C4CC4)o3)nc12 | 1.86 | – | – | – | 3.86 µM and 1.41 µM | 2.55 µM
O=C(Nc1ccc2c(c1)CNC2)c1cc(F)cc2[nH]c(-c3ccccc3)nc12 | – | 5.81 | – | – | 4.83 µM | > 50 µM and 6.86 µM
O=C(Nc1ccc2c(c1)CNC2)c1cc(F)cc2[nH]c(-c3cccc(F)c3)nc12 | 2.47 | 3.69 | – | – | – | –
